For orientation: IC50 means the midpoint of a concentration-inhibition curve. A word on the IC90: it is the concentration needed for an effect of 90%.

Some results are limits rather than exact numbers.

For the test, the system named is Plasmodium berghei. Kind of test: Luciferase/luciferin-expressing antifolate-resistant parasites were used to infect a culture of HepG2 cells that were pre-incubated with compounds. Infected hepatocytes emit light due to the luciferase reaction. Assay results are presented as the percent inhibition of light emission compared to control. […]. The note with it: sporozoite; for IC90: read-out: LUCIFERASE INFECTION ASSAY - IC90. Type of test: functional.

Regarding `Clc1ccc(-c2cnc3cnc(-c4ccncc4)cn23)cc1`, the IC90 came to 4.84 µM. Further, where the note is “PBLUC_HILL_SLOPE 2.25, PBLUC_R_SQUARED 0.741, read-out: LUCIFERASE INFECTION ASSAY - IC50”, the IC50 worked out at 1.82 µM.

Regarding `CCCCC1(Cc2ccccc2)C(=O)c2cccc3c4ccccc4n(c23)C1=O` (configuration not stated), the IC90 is > 8.65 µM. For the same compound, the IC50 (PBLUC_HILL_SLOPE 2.19, PBLUC_R_SQUARED 0.0283, read-out: LUCIFERASE INFECTION ASSAY - IC50) was found to be 8.01 µM.

In the case of `CS(=O)(=O)NCCc1ccc(C(=O)Nc2ncccc2O)cc1`, the 90% effect concentration (IC90) was > 10 µM. Also, the IC50 (PBLUC_HILL_SLOPE 2.26, PBLUC_R_SQUARED 0.152, read-out: LUCIFERASE INFECTION ASSAY - IC50) is 6.59 µM.

Take `CC(=O)Nc1cccc(-c2cn3c(-c4ccc5ncccc5c4)cnc3cn2)c1`: the IC90 is > 8.7 µM. Besides, where the note is “PBLUC_HILL_SLOPE 2.19, PBLUC_R_SQUARED 0.526, read-out: LUCIFERASE INFECTION ASSAY - IC50”, the IC50 was found to be 5.14 µM.

Take `CC(=O)c1ccc(C#CCOC(=O)c2cccs2)s1`: the IC90 is > 11.4 µM. Besides, the IC50 (PBLUC_HILL_SLOPE 2.26, PBLUC_R_SQUARED 0.405, read-out: LUCIFERASE INFECTION ASSAY - IC50) was found to be 5.72 µM.

`CN1c2ccccc2C(C)(C)C12C=Cc1c(ccc3oc4c(c13)CCCC4)O2` (configuration not stated): the IC90 was > 10 µM. Further, the IC50 (PBLUC_HILL_SLOPE 2.26, PBLUC_R_SQUARED 0.401, read-out: LUCIFERASE INFECTION ASSAY - IC50) worked out at 8.28 µM.

For `COc1ccc(C)cc1NC(=O)C(OC(=O)c1cccn1C)c1ccccc1` (configuration not stated), the IC90 is > 10 µM. In addition, the IC50 (PBLUC_HILL_SLOPE 2.21, PBLUC_R_SQUARED 0.0841, read-out: LUCIFERASE INFECTION ASSAY - IC50) is 8.87 µM.

As for `COc1ccc(NC2=NC(=O)/C(=C/c3cc(C)n(-c4cccc(Cl)c4Cl)c3C)S2)cc1`, the 90% effect concentration (IC90) worked out at 0.771 µM. Moreover, for the setting “PBLUC_HILL_SLOPE 2.19, 1.56, PBLUC_R_SQUARED 0.711, 0.979, read-out: LUCIFERASE INFECTION ASSAY - IC50”, the IC50 turned out to be 0.238 µM.

In the case of `CC(=O)Nc1ccc(OCC(=O)NC(c2ccc(C)cc2)c2cccs2)cc1` (configuration not stated), the IC90 is > 10 µM. Besides, the IC50 (PBLUC_HILL_SLOPE 2.22, PBLUC_R_SQUARED 0.0478, read-out: LUCIFERASE INFECTION ASSAY - IC50) was > 10 µM.

For the compound `COc1ccc(/C=C2\c3ccccc3Cn3c2nc(=O)c2c4c(sc23)CCCC4)cc1`, the IC90 was found to be 8.28 µM. In addition, where the note is “PBLUC_HILL_SLOPE 2.2, PBLUC_R_SQUARED 0.219, read-out: LUCIFERASE INFECTION ASSAY - IC50”, the IC50 was 3.06 µM.

Turning to `CCCc1oc2c(cc(NS(=O)(=O)c3ccc(Cl)cc3)c3ccccc32)c1C(=O)OCC`, the IC90 was > 10 µM. The IC50 (PBLUC_HILL_SLOPE 2.19, PBLUC_R_SQUARED 0.549, read-out: LUCIFERASE INFECTION ASSAY - IC50) was determined as 5.77 µM.

As to `CC1CCc2sc(C(=O)N(C)Cc3nc(=O)c4ccccc4[nH]3)cc2C1` (configuration not stated), the IC90 is 6.74 µM. Further, where the note is “PBLUC_HILL_SLOPE 2.24, PBLUC_R_SQUARED 0.489, read-out: LUCIFERASE INFECTION ASSAY - IC50”, the half-inhibitory concentration (IC50) turned out to be 2.52 µM.

As for `Cc1ccc(C)c(S(=O)(=O)N2CCN(C(=O)c3[nH]nc4ccccc34)CC2)c1`, the IC90 is 1.72 µM. For the setting “PBLUC_HILL_SLOPE 2.18, PBLUC_R_SQUARED 0.737, read-out: LUCIFERASE INFECTION ASSAY - IC50”, the IC50 is 0.627 µM.

Consider `COc1ccc(-c2nc3c(c(SCCN4CCCC4)n2)COC(C)(C)C3)cc1`, for which the IC90 is > 8.26 µM. Also, the IC50 (PBLUC_HILL_SLOPE 2.26, PBLUC_R_SQUARED 0.135, read-out: LUCIFERASE INFECTION ASSAY - IC50) is 5.35 µM.

For the compound `CCOC(=O)NC(=O)/C(C#N)=N/Nc1ccccc1`, the IC90 turned out to be 0.557 µM. In addition, where the note is “PBLUC_HILL_SLOPE 2.22, PBLUC_R_SQUARED 0.599, read-out: LUCIFERASE INFECTION ASSAY - IC50”, the IC50 was 0.207 µM.

Consider `COCCNc1nc2cnc(-c3cccc(Oc4ccccc4)c3)cc2n1C`, for which the IC90 is > 10 µM. Where the note is “PBLUC_HILL_SLOPE 2.22, PBLUC_R_SQUARED 0.147, read-out: LUCIFERASE INFECTION ASSAY - IC50”, the IC50 amounted to 6.81 µM.

As for `CCc1nc2ccccc2c(C(=O)OCC(=O)Nc2ccc(C#N)cc2)c1C`, the IC90 was > 10 µM. Further, where the note is “PBLUC_HILL_SLOPE 2.25, PBLUC_R_SQUARED 0.588, read-out: LUCIFERASE INFECTION ASSAY - IC50”, the IC50 came out at 4.96 µM.

For `C/C(=N\NC(=O)c1sc2ccccc2c1Cl)c1ccc(C(C)(C)C)cc1`, the 90% effect concentration (IC90) is > 10 µM. Further, the IC50 (PBLUC_HILL_SLOPE 2.25, PBLUC_R_SQUARED 0.703, read-out: LUCIFERASE INFECTION ASSAY - IC50) came to 4.74 µM.

`Cc1cc([N+](=O)[O-])cc(S(=O)(=O)N(Cc2ccc(C(=O)NC3CC3)cc2)C2CC2)c1C`: the IC90 is 2.18 µM. Further, the IC50 (PBLUC_HILL_SLOPE 2.2, PBLUC_R_SQUARED 0.808, read-out: LUCIFERASE INFECTION ASSAY - IC50) came to 0.801 µM.

For `CC(C)c1cc(NCCCN2CCOCC2)n2ncc(-c3ccccc3)c2n1`, the IC90 was > 8.7 µM. Also, where the note is “PBLUC_HILL_SLOPE 2.21, PBLUC_R_SQUARED 0.515, read-out: LUCIFERASE INFECTION ASSAY - IC50”, the IC50 came out at 4.34 µM.

As for `Nc1nc(Nc2cc(Cl)cc(Cl)c2)c2[nH]cnc2n1`, the IC90 turned out to be 8.62 µM. Where the note is “PBLUC_HILL_SLOPE 2.21, PBLUC_R_SQUARED 0.753, read-out: LUCIFERASE INFECTION ASSAY - IC50”, the IC50 is 3.18 µM.

With `O=C(c1ccccc1)N1[C@@H]2CC[C@@H](C2)[C@H]1c1nc2cccc(OCc3ccccc3)c2[nH]1`, the IC90 was > 10 µM. Besides, where the note is “PBLUC_HILL_SLOPE 2.24, PBLUC_R_SQUARED 0.373, read-out: LUCIFERASE INFECTION ASSAY - IC50”, the half-maximal inhibitory concentration (IC50) was > 10 µM.

For the compound `CN1CCN(c2ccc(-c3cn4c(-c5ccc(CO)cc5)cnc4cn3)cc2)CC1`, the 90% effect concentration (IC90) was > 8.26 µM. Moreover, the IC50 (PBLUC_HILL_SLOPE 2.22, PBLUC_R_SQUARED 0.0391, read-out: LUCIFERASE INFECTION ASSAY - IC50) was > 8.26 µM.

On to `O=C1NC2(CCOc3ccccc32)C(=O)N1CC(=O)N1N=C(c2ccc(Cl)cc2)CC1c1ccco1` (configuration not stated), for which the IC90 was > 10 µM. The IC50 (PBLUC_HILL_SLOPE 2.24, PBLUC_R_SQUARED 0.678, read-out: LUCIFERASE INFECTION ASSAY - IC50) is 5.4 µM.

As to `CN1CCN(c2ccc(-c3cn4c(-c5ccc6c(c5)OCO6)cnc4cn3)cn2)CC1`, the IC90 is > 7.96 µM. Besides, where the note is “PBLUC_HILL_SLOPE 2.2, PBLUC_R_SQUARED 0.54, read-out: LUCIFERASE INFECTION ASSAY - IC50”, the IC50 came out at 6.26 µM.

Regarding `CC(C)CN1C(=O)N(CCCc2cccnc2)C(=O)C12CCN(C(C)CCc1ccccc1)CC2` (configuration not stated), the IC90 is > 6.92 µM. Also, the IC50 (PBLUC_HILL_SLOPE 2.19, PBLUC_R_SQUARED 0.623, read-out: LUCIFERASE INFECTION ASSAY - IC50) was determined as 3.61 µM.

For the compound `CCOc1cc(/C=C/c2nc3cc(Cl)ccc3o2)ccc1OCC(=O)N(C(C)C)C(C)C`, the IC90 is > 10 µM. Further, under “PBLUC_HILL_SLOPE 2.25, PBLUC_R_SQUARED 0.0279, read-out: LUCIFERASE INFECTION ASSAY - IC50”, the IC50 is > 10 µM.

As to `CCCn1c(N)c(C(=O)CN(Cc2ccco2)Cc2cccs2)c(=O)[nH]c1=O`, the IC90 was > 10 µM. For the same compound, for the setting “PBLUC_HILL_SLOPE 2.23, PBLUC_R_SQUARED 0.528, read-out: LUCIFERASE INFECTION ASSAY - IC50”, the IC50 was 5.46 µM.

Regarding `CNC(=O)c1ccc(CN(C2CC2)S(=O)(=O)c2ccc(C)cc2C)cc1`, the IC90 turned out to be 8.11 µM. In addition, the IC50 (PBLUC_HILL_SLOPE 2.19, PBLUC_R_SQUARED 0.255, read-out: LUCIFERASE INFECTION ASSAY - IC50) turned out to be 2.97 µM.

As for `CC(CN1CCC2(CC1)C(=O)N(Cc1ccccn1)C(=O)N2Cc1ccccc1)c1ccccc1` (configuration not stated), the IC90 is > 7.04 µM. Besides, the IC50 (PBLUC_HILL_SLOPE 2.23, PBLUC_R_SQUARED 0.302, read-out: LUCIFERASE INFECTION ASSAY - IC50) is > 7.04 µM.

As for `O=C(COc1ccccc1)Nc1nc2ccccn2c1C(=O)NC1CCCC1`, the IC90 is > 8.72 µM. Besides, the IC50 (PBLUC_HILL_SLOPE 2.22, PBLUC_R_SQUARED 0.0336, read-out: LUCIFERASE INFECTION ASSAY - IC50) is 7.18 µM.

Consider `COc1ccc2c(-c3ccccc3)cc(SCc3nnc(C)o3)nc2c1`, for which the IC90 is > 10 µM. For the same compound, the IC50 (PBLUC_HILL_SLOPE 2.18, PBLUC_R_SQUARED 0.122, read-out: LUCIFERASE INFECTION ASSAY - IC50) was 6.06 µM.

As to `c1ccc(Oc2cccc(-c3ccc4nnc(-c5ccc6nccnc6c5)n4c3)c2)cc1`, the IC90 was > 10 µM. In addition, under “PBLUC_HILL_SLOPE 2.21, PBLUC_R_SQUARED 0.734, read-out: LUCIFERASE INFECTION ASSAY - IC50”, the IC50 is 4.56 µM.

Consider `Cc1cc(C(=O)CN2CCN(C)CC2)c(C)n1C(c1ccccc1)c1ccccc1`, for which the IC90 was > 10 µM. In addition, the IC50 (PBLUC_HILL_SLOPE 2.18, PBLUC_R_SQUARED 0.339, read-out: LUCIFERASE INFECTION ASSAY - IC50) is 6.77 µM.

`C=CCn1c[n+](C2=C(NS(=O)(=O)c3ccc(C)cc3)C(=O)c3ccccc3C2=O)c2ccccc21`: the IC90 is 1.26 µM. Also, for the setting “PBLUC_HILL_SLOPE 2.18, PBLUC_R_SQUARED 0.79, read-out: LUCIFERASE INFECTION ASSAY - IC50”, the IC50 was 0.462 µM.

With `CCCCN1C(=O)C(=O)c2cc(Br)cc(C)c21`, the IC90 was > 10 µM. Moreover, for the setting “PBLUC_HILL_SLOPE 2.24, PBLUC_R_SQUARED 0.667, read-out: LUCIFERASE INFECTION ASSAY - IC50”, the IC50 was found to be 4.61 µM.

The values are drawn from ChEMBL document CHEMBL4483862, “Open-source discovery of chemical leads for next-generation chemoprotective antimalarials” (2018).
